Measurements: paper PMC11123961, “Design, Synthesis, and Biological Evaluation of the Quorum-Sensing Inhibitors of Pseudomonas aeruginosa PAO1” (Molecules, 2024)

Legend:
[1] = test system: P. aeruginosa PAO1 biofilms; assay: Biofilm quantification, crystal violet assay; assay type: cell-based, Pseudomonas aeruginosa; settings: Pseudomonas aeruginosa, PAO1
Experimental: 3.2.3. Biofilm Quantification Assays
The crystal violet assay was used to quantitatively analyze the biofilm, as previously described. P. aeruginosa PAO1 log phase was diluted 100 times with fresh LB medium and incubated for 3.5 h at 37 °C and 150 rpm. After that, the P. aeruginosa PAO1 bacterial culture was added to the 96-well plate. P. aeruginosa PAO1 bacterial culture in 90 μL was added to the experimental group, and 10 μL of the test compound at a final concentration of 325 μM, 162.5 μM, 81.25 μM, 40 μM, 20 μM, and 10 μM. Each well received 100 μL of bacterial culture for the control group and 100 μL of fresh LB medium for the blank group. After 20 h of incubation at 37 °C, the bacterial culture was removed from the 96-well plate, and it was dried after three PBS washes. Each well received […] of 0.1% crystal violet (CV) for a 15 min staining period. Each well was washed three times with PBS after the CV was removed. Lastly, each well received 150 μL of 33% glacial acetic acid, and a Biotek multi-function microplate reader was used to measure the absorbance value at 595 nm. The biofilm inhibition rate was calculated as follows = (OD595 blank − OD595 sample)/OD595 blank × 100%.

[2] = test system: RAW 264.7 cells; assay: Cytotoxicity test, CCK8; assay type: cell-based, mouse; settings: 162.50, 81.25 and 40.00 μM, 12 h
Experimental: The cell line used in this study was mouse mononuclear macrophage leukemia cell RAW 264.7. The cells were cultured in DMEM complete medium (basal medium containing 10% fetal bovine serum, 100 U/mL penicillin, and […] streptomycin) at 37 °C in a 5% CO2 incubator. When the cells covered 80% of the bottom of the plate, they were passaged more than three times.
Adherent RAW 264.7 cells were digested to detach the cells. Digestion was stopped via the addition of PBS and centrifuging at 1000 rpm for 5 min. The supernatant was discarded, and the cells were resuspended in 1 mL of medium for cell counting. Based on the counting results, the cell suspension was diluted. Then, 100 μL of the diluted cell suspension was added to a 96-well plate, with approximately 1 × 10^4 cells per well. The cells were then placed in the incubator to allow for adherence.
One well without cells received 100 μL of complete medium as a blank control, and one well with cells received 100 μL of complete medium as a negative control. […]
After incubation, the medium was removed, and 100 μL of 10% CCK8 solution was added to each well. The absorbance at 450 nm (OD450) was measured at 0.5 h, 1 h, and 2 h until OD450 = 1.
Cell viability was calculated using the following formula: cell activity = (OD450 compound − OD450 blank)/(OD450 negative control − OD450 blank) x 100%

[3] = test system: P. aeruginosa PAO1 elastase; assay: Elastase quantification (EnzCheck Elastase Assay Kit); assay type: cell-based, Pseudomonas aeruginosa
Experimental: The method previously described was used to perform the elastase quantification experiment. In LB medium, P. aeruginosa PAO1 was cultivated until the logarithmic growth phase at 37 °C and 150 rpm. […] Elastase activity was detected using the EnzCheckTM Elastase Assay Kit after filtration with a 0.22 μm filter membrane.

[4] = Pharmacokinetics in male CD1 mice; assay type: in vivo
Experimental: Beijing Pharmaron Inc. carried out pharmacokinetic studies relating to compound Y-31 in mice. All of the animals were kept in a pathogen-free barrier animal facility, and the company’s Animal Care and Use Committee approved the experiments. On the day of administration, the sample solution was made into a 5, 20 mg/kg solution. Following a single dosage of compound Y-31 either intravenously (5 mg/kg, IV) or orally (20 mg/kg, PO) at 0.25, 0.5, 1, 2, 4, 6, 8, and 24 h post-administration, blood samples were taken from CD1 male mice (n = 3). After that, the plasma was centrifuged for […] at 4000 g and 4 °C to yield. The plasma was diluted 3 times with water. For quantitative analysis, a measurement of 2 µL of diluted supernatant was put into the LC/MS/MS apparatus. […] Phoenix WinNonlin 8.0 software was applied to calculate the pharmacokinetic parameters.

[5] = test system: P. aeruginosa PAO1 rhamnolipid; assay: Rhamnolipid quantification assay (orcinol); assay type: cell-based, Pseudomonas aeruginosa
Experimental: The rhamnolipid quantification assay was as follows: sulfuric acid–orcinol concentrated solution was used to examine the compound’s impact on P. aeruginosa PAO1 rhamnolipid. Initially, 50 μg/mL, 100 μg/mL, 200 μg/mL, and 400 μg/mL of a prepared solution of rhamnose standard at a concentration of 1 mg/mL in tilled water were diluted. Subsequently, 900 μL of 0.19% orcinol-concentrated sulfuric acid solution (0.19% orcinol (w/v), 50% H2SO4) was mixed with 100 μL of each concentration of rhamnose standard solution, and the mixture was incubated for 30 min at 80 °C in a water bath. After cooling to 25 °C, the OD value at 421 nm was measured. A standard curve of rhamnose concentration–absorbance values was established using Excel software 2019.
After cultivating P. aeruginosa PAO1 in LB medium for a logarithmic growth phase at 37 °C and 150 rpm, the bacterial culture was diluted with PPGAS solution (20 mM KCl, 20 mM NH4Cl, 0.5% glucose, 1.6 mM MgSO4, 120 mM Tris-HCl, and 1.0% peptone) to OD600 = 0.05. […] After centrifuging the bacterial cultures for 10 min at 1665 g, the supernatants were gathered. After extracting the supernatants twice using ethyl acetate, the organic layers were gathered and allowed to dry out at room temperature overnight. After resuspending the solid product in deionized water, 100 μL was added to 900 μL of 0.19% orcinol in 50% H2SO4, and the mixture was incubated for 30 min at 80 °C in a water bath. After cooling to 25 °C, the OD value at 421 nm was measured. The rhamnolipid content in the sample was determined according to a rhamnose standard curve (rhamnolipid content = 2.5 × rhamnose content).

[6] = mouse, plasma, IV, 5 mg/kg, male CD1 mice
[7] = mouse, plasma, PO, 20 mg/kg, male CD1 mice

## O=C(CCCOc1ccc(I)cc1)NN1CCCOC1=O [Y-31]
[1]; 40 μM, read-out: P. aeruginosa PAO1 biofilm inhibition rate
  inhibition at 40 µM: 40.4%
[1]; concentration 20.3125 (unit not given in Table S1; μM in method), 20 h, read-out: Inhibition ratio of biofilm
  inhibition at 20.3125 µM: 21.1%
[1]; concentration 40.625 (unit not given in Table S1; μM in method), 20 h, read-out: Inhibition ratio of biofilm
  inhibition at 40.625 µM: 40.4%
[1]; concentration 81.25 (unit not given in Table S1; μM in method), 20 h, read-out: Inhibition ratio of biofilm
  inhibition at 81.25 µM: 39.5%
[1]; concentration 162.5 (unit not given in Table S1; μM in method), 20 h, read-out: Inhibition ratio of biofilm
  inhibition at 162.5 µM: 42.1%
[1]; concentration 325 (unit not given in Table S1; μM in method), 20 h, read-out: Inhibition ratio of biofilm
  inhibition at 325 µM: 41%
[2]
  Cytotoxicity towards RAW 264.7 cells (cell viability): did not exhibit significant cytotoxicity
[3]; 162.5 μM
  Inhibition rate of elastase: 22.7%
[3]; Pseudomonas aeruginosa, PAO1, read-out: Inhibition rate of elastase, 40 μM
  inhibition at 40 µM: 11.3%
[3]; Pseudomonas aeruginosa, PAO1, read-out: Inhibition rate of elastase, 81.5 μM
  inhibition at 81.5 µM: 20%
[3]; Pseudomonas aeruginosa, PAO1, read-out: Inhibition rate of elastase, 162.5 μM
  inhibition at 162.5 µM: 22.7%
[4]; [6]
  AUC: 935 ng·h/mL
  Cmax: 3290 ng/mL
  Tmax: 4.8 min
  half-life: 7.8 min
[4]; mouse, plasma, PO, 20 mg/kg vs IV 5 mg/kg, male CD1 mice, read-out: F (bioavailability)
  bioavailability: 30.4%
[4]; [7]
  AUC: 1100 ng·h/mL
  Cmax: 1280 ng/mL
  Tmax: 15 min
  half-life: 311 min
[4]; single dose 5 mg/kg IV or 20 mg/kg PO, CD1 male mice
  Clinical symptoms during the pharmacokinetic trial: no unusual clinical symptoms were noticed
[5]; 162.5 μM
  Inhibition rate of rhamnolipid: 6.1%
[5]; Pseudomonas aeruginosa, PAO1, read-out: Inhibition rate of rhamnolipid, 40 μM
  inhibition at 40 µM: 0.4%
[5]; Pseudomonas aeruginosa, PAO1, read-out: Inhibition rate of rhamnolipid, 81.5 μM
  inhibition at 81.5 µM: 5.8%
[5]; Pseudomonas aeruginosa, PAO1, read-out: Inhibition rate of rhamnolipid, 162.5 μM
  inhibition at 162.5 µM: 6.13%
